In patent US20240287080A1 (IDEAYA Biosciences Inc., priority 2021, published 2024):

Biological target: T1, Pol theta (1-899) (Homo sapiens, UniProt O75417)
T1 construct: Pol theta (1-899) (5 nM) in assay buffer
Assay: Pol theta ATPase activity, NADH oxidation-coupled enzymatic assay (ATPase NADH coupling: Standard Screening: hPolQ)
Format: biochemical
Conditions: Pol theta (1-899) 5 nM, NADH oxidation-coupled ATPase assay; compounds of Table 3
Summary of the method: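 Rates of ATP hydrolysis taken from 60-min A340 traces of NADH oxidation via PK/LDH coupling, then fit four-parameter for IC50, Hill slope and max inhibition. Enzyme (5 nM, 1-899) and compounds preincubated 15 min before ATP 100 μM and 50-thymine ssDNA 300 nM (stock, equal volume added).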

T1 sequence (O75417 1-899): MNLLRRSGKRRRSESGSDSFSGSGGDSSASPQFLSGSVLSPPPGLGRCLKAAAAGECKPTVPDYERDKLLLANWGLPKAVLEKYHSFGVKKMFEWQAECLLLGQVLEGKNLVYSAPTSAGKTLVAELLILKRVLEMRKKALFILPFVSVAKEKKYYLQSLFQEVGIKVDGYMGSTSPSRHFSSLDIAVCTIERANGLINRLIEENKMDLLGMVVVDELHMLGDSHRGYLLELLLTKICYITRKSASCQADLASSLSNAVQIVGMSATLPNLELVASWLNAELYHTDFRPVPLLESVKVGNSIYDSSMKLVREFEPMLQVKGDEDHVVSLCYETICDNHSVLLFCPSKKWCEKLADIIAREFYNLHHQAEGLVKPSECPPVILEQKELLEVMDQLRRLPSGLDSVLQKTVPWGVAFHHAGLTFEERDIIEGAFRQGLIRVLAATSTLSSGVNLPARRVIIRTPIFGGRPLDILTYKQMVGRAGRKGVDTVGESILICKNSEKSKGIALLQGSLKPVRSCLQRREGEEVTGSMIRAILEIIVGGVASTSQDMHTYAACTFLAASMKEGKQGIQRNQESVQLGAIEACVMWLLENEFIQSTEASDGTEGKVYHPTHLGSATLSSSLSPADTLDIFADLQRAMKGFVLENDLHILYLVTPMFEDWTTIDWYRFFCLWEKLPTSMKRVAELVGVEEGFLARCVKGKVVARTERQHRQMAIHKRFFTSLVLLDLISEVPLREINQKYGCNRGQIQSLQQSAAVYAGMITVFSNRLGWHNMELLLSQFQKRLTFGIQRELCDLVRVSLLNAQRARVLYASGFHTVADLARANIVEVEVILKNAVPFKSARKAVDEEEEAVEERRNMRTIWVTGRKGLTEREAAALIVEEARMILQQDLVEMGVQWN

Compared with `COc1nnc(NC(=O)c2cnc(C)cc2-c2ccc3cn[nH]c3c2)s1` [Example 338, 4-(1H-indazol-6-yl)-N-(5-methoxy-1,3,4-thiadiazol-2-yl)-6-methylnicotinamide], `COc1nnc(NC(=O)c2cnc(C)cc2-c2cccc3[nH]ncc23)s1` [Example 335, 4-(1H-indazol-4-yl)-N-(5-methoxy-1,3,4-thiadiazol-2-yl)-6-methylnicotinamide] is lower in IC50: 1000 to 10000 nM for the first, 500 to 1000 nM for the second.

`COc1cnc(Cl)cc1-c1cc(C)ncc1C(=O)Nc1nnc(OC2([C@H]3CCOC3)CC2)s1` (single isomer, unassigned) [Example 297] and `COc1cnc(Cl)cc1-c1cc(C)ncc1C(=O)Nc1nnc(O[C@H]2CC[C@@]23CCOC3)s1` (racemic) [Example 292, rac-N-(5-(((1S,4S)-6-oxaspiro[3.4]octan-1-yl)oxy)-1,3,4-thiadiazol-2-yl)-2′-chloro-5′-methoxy-6-methyl-[4,4′-bipyridine]-3-carboxamide] cannot be ordered by IC50: at most 200 nM for the first, at most 200 nM for the second.

`COc1nnc(NC(=O)c2cnc(C)cc2-c2cccc(C(=O)O)c2)s1` [Example 326, 3-(5-((5-methoxy-1,3,4-thiadiazol-2-yl)carbamoyl)-2-methylpyridin-4-yl)benzoic acid] and `COc1nnc(NC(=O)c2cnc(C)cc2-c2cccc(O)c2)s1` [Example 452, 4-(3-hydroxyphenyl)-N-(5-methoxy-1,3,4-thiadiazol-2-yl)-6-methylpyridine-3-carboxamide] fall in the same range of IC50: 1000 to 10000 nM for the first, 1000 to 10000 nM for the second.

Compared with `CNC(=O)c1ccc(-c2cc(C)ncc2C(=O)Nc2nnc(OC)s2)cc1` [Example 402, N-(5-methoxy-1,3,4-thiadiazol-2-yl)-6-methyl-4-[4-(methylcarbamoyl)phenyl]pyridine-3-carboxamide], `COc1nnc(NC(=O)c2cnc(C)cc2-c2ccc3c(cnn3C)c2)s1` [Example 449, N-(5-methoxy-1,3,4-thiadiazol-2-yl)-6-methyl-4-(1-methyl-1H-indazol-5-yl)pyridine-3-carboxamide] is lower in IC50: 1000 to 10000 nM for the first, 500 to 1000 nM for the second.

`COc1cnc(Cl)cc1-c1cc(C)ncc1C(=O)Nc1nnc(OCCN(C)CC(F)(F)F)s1` [Example 317, 2′-chloro-5′-methoxy-6-methyl-N-(5-(2-(methyl(2,2,2-trifluoroethyl)amino)ethoxy)-1,3,4-thiadiazol-2-yl)-[4,4′-bipyridine]-3-carboxamide] and `COc1nnc(NC(=O)c2cnc(C)cc2-c2cccc(C(F)(F)F)c2)s1` [Example 359, N-(5-methoxy-1,3,4-thiadiazol-2-yl)-6-methyl-4-[3-(trifluoromethyl)phenyl]pyridine-3-carboxamide] cannot be ordered by IC50: at most 200 nM for the first, at most 200 nM for the second.

First: COc1nnc(NC(=O)c2cnc(C)cc2-c2cccc3ccccc23)s1 [Example 398, N-(5-methoxy-1,3,4-thiadiazol-2-yl)-6-methyl-4-(naphthalen-1-yl)pyridine-3-carboxamide]
Second: COc1nnc(NC(=O)c2cnc(C)cc2-c2ccccc2C(C)C)s1 [Example 392, N-(5-methoxy-1,3,4-thiadiazol-2-yl)-6-methyl-4-[2-(propan-2-yl)phenyl]pyridine-3-carboxamide]
The IC50 of the first is lower: at most 200 nM for the first, 1000 to 10000 nM for the second. The first is the more potent here.

`COc1cnc(Cl)c(F)c1-c1cc(C)ncc1C(=O)Nc1nnc(O[C@H]2CC[C@@H](CO)CC2)s1` [Example 245, 2′-chloro-3′-fluoro-N-(5-(((1s,4s)-4-(hydroxymethyl)cyclohexyl)oxy)-1,3,4-thiadiazol-2-yl)-5′-methoxy-6-methyl-[4,4′-bipyridine]-3-carboxamide] and `COc1cnc(C)c(F)c1-c1cc(C)ncc1C(=O)Nc1nnc(O[C@H]2C[C@H]3C[C@@H]2C[C@@H]3O)s1` (single isomer, unassigned) [Example 261] cannot be ordered by IC50: at most 200 nM for the first, at most 200 nM for the second.

First: COc1nnc(NC(=O)c2cnc(C)cc2-c2cnc3[nH]ccc3c2)s1 [Example 399, N-(5-methoxy-1,3,4-thiadiazol-2-yl)-6-methyl-4-{1H-pyrrolo[2,3-b]pyridin-5-yl}pyridine-3-carboxamide]
Second: COc1nnc(NC(=O)c2cnc(C)cc2-c2cc(Cl)cc3c2OCCN3)s1 [Example 320, 4-(6-chloro-3,4-dihydro-2H-benzo[b][1,4]oxazin-8-yl)-N-(5-methoxy-1,3,4-thiadiazol-2-yl)-6-methylnicotinamide]
The IC50 of the first is higher: 1000 to 10000 nM for the first, at most 200 nM for the second.

Same assay, conditions: Table 4; Pol theta (1-899) 5 nM, ATP, dT50 ssDNA

First: COc1nnc(NC(=O)c2c[n+]([O-])c(C)cc2-c2cc(Cl)ncc2OC)s1 [Example 65, 2′-chloro-5′-methoxy-5-((5-methoxy-1,3,4-thiadiazol-2-yl)carbamoyl)-2-methyl-(4,4′-bipyridine) 1-oxide]
Second: COc1nnc(NC(=O)c2cnc(C)cc2-c2cc([C@H](C)O)ncc2OC)s1 (single isomer, unassigned) [Example 68]
The IC50 of the first is lower: 500 to 1000 nM for the first, 1000 to 10000 nM for the second. The first is the more potent here.

`COc1cnc(Cl)cc1-c1cc(C)ncc1C(=O)Nc1nnc(OC2CC2)s1` [Example 7, 2′-chloro-N-(5-cyclopropoxy-1,3,4-thiadiazol-2-yl)-5′-methoxy-6-methyl-(4,4′-bipyridine)-3-carboxamide] and `COc1cnc(Cl)cc1-c1cc(C)ncc1C(=O)Nc1nnc(O[C@H]2C[C@@H](O)C2)s1` [Example 15, 2′-chloro-N-(5-((1s,3s)-3-hydroxycyclobutoxy)-1,3,4-thiadiazol-2-yl)-5′-methoxy-6-methyl-(4,4′-bipyridine)-3-carboxamide] cannot be ordered by IC50: at most 200 nM for the first, at most 200 nM for the second.

`COc1cnc(Cl)cc1-c1cc(C)ncc1C(=O)Nc1nnc(O[C@H]2CCO[C@@H]2C)s1` (single isomer, unassigned) [Example 77, 2′-chloro-5′-methoxy-6-methyl-N-(5-(((2r,3s)-2-methyltetrahydrofuran-3-yl)oxy)-1,3,4-thiadiazol-2-yl)-(4,4′-bipyridine)-3-carboxamide] and `COc1cnc(Cl)cc1-c1cc(C)ncc1C(=O)Nc1nnc(OC2CCS(=O)(=O)CC2)s1` [Example 25, 2′-chloro-N-(5-((1,1-dioxidotetrahydro-2H-thiopyran-4-yl)oxy)-1,3,4-thiadiazol-2-yl)-5′-methoxy-6-methyl-(4,4′-bipyridine)-3-carboxamide] cannot be ordered by IC50: at most 200 nM for the first, at most 200 nM for the second.

Same assay, conditions: Table 5; Pol theta (1-899) 5 nM, ATP, dT50 ssDNA

`COc1cnc(Cl)cc1-c1cc(C)ncc1C(=O)Nc1nnc(O[C@H]2CC[C@@]3(CCO3)CC2)s1` (single isomer, unassigned) [Example 186, N-(5-(((4r,7r)-1-oxaspiro(3.5)nonan-7-yl)oxy)-1,3,4-thiadiazol-2-yl)-2′-chloro-5′-methoxy-6-methyl-(4,4′-bipyridine)-3-carboxamide] and `COc1cnc(Cl)cc1-c1cc(C)ncc1C(=O)Nc1nnc(O[C@H]2CC[C@@H](OC)C2)s1` (racemic) [Example 150, rac-2′-chloro-5′-methoxy-N-(5-(((1R,3S)-3-methoxycyclopentyl)oxy)-1,3,4-thiadiazol-2-yl)-6-methyl-(4,4′-bipyridine)-3-carboxamide] cannot be ordered by IC50: at most 200 nM for the first, at most 200 nM for the second.

`COc1cnc(Cl)cc1-c1cc(C)ncc1C(=O)Nc1nnc(O[C@H]2CC[C@@H]([C@@H](C)O)CC2)s1` (single isomer, unassigned) [Example 212] and `COc1cnc(Cl)cc1-c1cc(C)ncc1C(=O)Nc1nnc(O[C@@H]2CO[C@H](C)C2)s1` (single isomer, unassigned) [Example 189] cannot be ordered by IC50: at most 200 nM for the first, at most 200 nM for the second.

`COc1cnc(Cl)c(F)c1-c1cc(C)ncc1C(=O)Nc1nnc(O[C@H]2CCOC2)s1` [Example 81, 2′-chloro-3′-fluoro-5′-methoxy-6-methyl-N-(5-(((S)-tetrahydrofuran-3-yl)oxy)-1,3,4-thiadiazol-2-yl)-(4,4′-bipyridine)-3-carboxamide] and `COc1cnc(C)c(F)c1-c1cc(C)ncc1C(=O)Nc1nnc(O[C@@H]2CCOC2)s1` [Example 206] cannot be ordered by IC50: at most 200 nM for the first, at most 200 nM for the second.

`Cc1cc(-c2cc(Br)ncc2OC(F)F)c(C(=O)Nc2nnc(O[C@@H]3CCOC3)s2)cn1` [Example 195, (R)-2′-bromo-5′-(difluoromethoxy)-6-methyl-N-(5-((tetrahydrofuran-3-yl)oxy)-1,3,4-thiadiazol-2-yl)-(4,4′-bipyridine)-3-carboxamide] and `COc1cnc(Br)cc1-c1cc(C)ncc1C(=O)Nc1nnc(O[C@H]2CCOC2)s1` [Example 122, (S)-2′-bromo-5′-methoxy-6-methyl-N-(5-((tetrahydrofuran-3-yl)oxy)-1,3,4-thiadiazol-2-yl)-(4,4′-bipyridine)-3-carboxamide] cannot be ordered by IC50: at most 200 nM for the first, at most 200 nM for the second.

First: COc1nnc(NC(=O)c2cnc(OC3CC3)cc2-c2cc(Cl)ncc2OC)s1 [Example 196, 2′-chloro-6-cyclopropoxy-5′-methoxy-N-(5-methoxy-1,3,4-thiadiazol-2-yl)-(4,4′-bipyridine)-3-carboxamide]
Second: COc1cnc(Cl)c(F)c1-c1cc(C)ncc1C(=O)Nc1nnc(O[C@H]2CC[C@H](O)CC2)s1 [Example 211, 2′-chloro-3′-fluoro-N-(5-(((1r,4r)-4-hydroxycyclohexyl)oxy)-1,3,4-thiadiazol-2-yl)-5′-methoxy-6-methyl-(4,4′-bipyridine)-3-carboxamide]
The IC50 of the first is higher: 500 to 1000 nM for the first, at most 200 nM for the second. The second is the more potent here.

`COc1cnc(Cl)c(F)c1-c1cc(C)ncc1C(=O)Nc1nnc(O[C@H]2COC3(CC3)C2)s1` (single isomer, unassigned) [Example 210] and `COc1cnc(C)c(F)c1-c1cc(C)ncc1C(=O)Nc1nnc(O[C@H]2CC[C@](C)(O)CC2)s1` (single isomer, unassigned) [Example 224, 3′-fluoro-N-(5-(((1r,4r)-4-hydroxy-4-methylcyclohexyl)oxy)-1,3,4-thiadiazol-2-yl)-5′-methoxy-2′,6-dimethyl-(4,4′-bipyridine)-3-carboxamide] cannot be ordered by IC50: at most 200 nM for the first, at most 200 nM for the second.

Same assay, conditions: Table 5; values given as bound; Pol theta (1-899) 5 nM, ATP, dT50 ssDNA

`COc1nnc(NC(=O)c2cn(C)nc2-c2cc(Cl)ncc2OC)s1` [Example 110, 3-(2-chloro-5-methoxypyridin-4-yl)-N-(5-methoxy-1,3,4-thiadiazol-2-yl)-1-methyl-1H-pyrazole-4-carboxamide] was tested, and the IC50 was over 10000 nM.
